Reference: patent US4892947A, “3(2H)Pyridazinone, process for its preparation and anti-allergic agent containing it” (Nissan Chemical Industries Ltd., priority 1985, dated 1990)
Counter-ions that a name gives are not always drawn.

System: LTD4
Test: LTD4 antagonism in isolated guinea-pig trachea (method (i))
Assay type: cell-based
Conditions: 10^-5 g/ml test compound, 5 min prior to LTD4 (2×10^-8 g/ml), hydrochloride
Method: (i) LTC4 and LTD4 antagonisms in guinea-pig trachea
Antagonisms for LTC4 and LTD4 were determined in isolated guinea-pig trachea prepared as spiral strip. Tracheal preparations were suspended under 1 g tension in 10 ml organ baths and they were incubated for 1 hr prior to use. Contractile responses to LTC4 (2×10^-8 g/ml) and LTD4 (2×10^-8 g/ml) were obtained after the maximal response to histamine (10^-4 M). Test compounds dissolved in 100% dimethyl sulfoxide were added to the organ baths (final concentration of 10^-5 g/ml or 10^-6 g/ml) 5 min prior to LTC4 and LTD4 addition, and then contractile responses to LTC4 and LTD4 were compared with those of control which was obtained from a paired trachea in the absence of test compounds. LTC4 - and LTD4 -induced contractions were expressed as a percentage of the maximal response to histamine. The antagonism was determined as follows:
(§1) Antagonism (%)=(1.0-% contraction in test/% contraction in control)×100

| Structure (SMILES) | LTD4 antagonism (%) |
| --- | --- |
| COc1ccc(CNc2cnn(CCN(C)C)c(=O)c2Cl)cc1OC [Compound No. 9, 4-Chloro-5-(3,4-dimethoxybenzylamino)-2-(2-N,N-dimethylaminoethyl)-3(2H)pyridazinone hydrochloride] | 26% |

Same assay, conditions: Cavia porcellus, 5 min, 10^-5 g/ml test compound, 5 min prior to LTD4 (2×10^-8 g/ml)

| Structure (SMILES) | inhibition at 10 µg/mL |
| --- | --- |
| CCCOc1cc(CNc2cn[nH]c(=O)c2Br)ccc1OC [compound 30] | 100% |
| CN(C)c1ccc(CNc2cn[nH]c(=O)c2Cl)cc1 [compound 25] | 63% |
| Cn1ncc(NCc2ccc(C(=O)O)cc2)c(Cl)c1=O [compound 27] | 20% |
| COc1cc(CNc2cnn(CCCO)c(=O)c2Cl)cc(OC)c1OC [compound 20] | 19% |
| CCCCC/C=C\c1ccc(CNc2cnn(CC(=O)O)c(=O)c2Cl)cc1 [compound 23] | 31% |
| COc1cc(CNc2cnn(C)c(=O)c2Cl)cc(OC)c1OC [compound 19] | 22% |
| CCCOc1cccc(CNc2cn[nH]c(=O)c2Cl)c1 [compound 31] | 51% |
| C=CCn1ncc(NCc2ccc(SC)cc2)c(Cl)c1=O [compound 22] | 72% |
| C=CCn1ncc(NCc2ccc(Cl)cc2)c(Cl)c1=O [Compound No. 2] | 93% |
| CCN(CC)c1ccc(CNc2cnn(C)c(=O)c2Cl)cc1 [compound 26] | 46% |
| COc1ccc(CNc2cnn(CC(F)(F)F)c(=O)c2Cl)cc1OC [compound 11] | 47% |
| CCCCCOc1cc(CNc2cnn(CCC(=O)OC(C)(C)C)c(=O)c2Cl)ccc1OC [Compound No. 16, 4-Chloro-5-(3-n-pentyloxy-4-methoxybenzylamino)-2-{2-(t-butyloxycarbonyl)ethyl}-3(2H)pyridazinone] | 24% |
| CCCOc1cccc(CNc2cn[nH]c(=O)c2Br)c1 [compound 29] | 61% |
| C=CCn1ncc(NCc2ccc(OC)c(OC)c2)c(Cl)c1=O [compound 6] | 53% |
| COc1ccc(CNc2cn[nH]c(=O)c2Cl)cc1 [compound 28] | 67% |
| Cn1ncc(NCc2cccc(OCc3ccccc3)c2)c(Cl)c1=O [compound 7] | 53% |
| CCCCCOc1cc(CNc2cnn(CCO)c(=O)c2Cl)ccc1OC [compound 14] | 35% |
| CCOc1cccc(CNc2cnn(C)c(=O)c2Cl)c1 [Compound No. 4] | 49% |
| CCCCOC(=O)c1ccc(CNc2cnn(C)c(=O)c2Cl)cc1 [compound 24] | 43% |
| CCCCCOc1cc(CNc2cnn(CCC(=O)O)c(=O)c2Cl)ccc1OC [compound 18] | 18% |
| CCCOc1cccc(CNc2cnn(C)c(=O)c2Cl)c1 [compound 5] | 71% |
| COc1ccc(CNc2cnn(CCN(C)C)c(=O)c2Cl)cc1O [compound 21] | 20% |
| CC(C)c1ccc(CNc2cnn(C)c(=O)c2Cl)cc1 [Compound No. 1] | 49% |
| COc1ccc(CNc2cnn(CCN(C)C)c(=O)c2Cl)cc1OC [Compound No. 8, 4-Chloro-5-(3,4-dimethoxybenzylamino)-2-(2-N,N-dimethylaminoethyl)-3(2H)pyridazinone] | 36% |
| CCCOc1cc(CNc2cnn(C)c(=O)c2Cl)ccc1OC [Compound No. 12] | 73% |
| CCCCCOc1cc(CNc2cnn(CCCO)c(=O)c2Cl)ccc1OC [compound 15] | 51% |
| CCCCCOc1cc(CNc2cnn(CC(=O)O)c(=O)c2Cl)ccc1OC [compound 17] | 20% |

Same assay, conditions: Cavia porcellus, 5 min, 10^-6 g/ml test compound, Test method (i) (asterisk in Table 4), 5 min prior to LTD4

| Structure (SMILES) | inhibition at 1 µg/mL |
| --- | --- |
| CCCOc1cc(CNc2cn[nH]c(=O)c2Br)ccc1OC [compound 30] | 78% |
| CCCCCOc1cc(CNc2cn[nH]c(=O)c2Br)ccc1OC [Compound No. 39, 4-Bromo-5-(3-n-pentyloxy-4-methoxybenzylamino)-3(2H)-pyridazinone] | 87% |
| CCCCCOc1cc(CNc2cn[nH]c(=O)c2Cl)ccc1OC [Compound No. 37] | 87% |
| CCOc1cc(CNc2cn[nH]c(=O)c2Br)ccc1OC [compound 36] | 70% |
| CCOc1cc(CNc2cn[nH]c(=O)c2Cl)ccc1OC [compound 35] | 42% |
| CCCCOc1cc(CNc2cn[nH]c(=O)c2Cl)ccc1OC [compound 34] | 49% |

System: LTD4
Test: LTD4 antagonism in isolated guinea-pig trachea with indomethacin (method (ii))
Assay type: cell-based
Conditions: Cavia porcellus, 0.5 h, 10^-6 g/ml test compound, 30 min prior to LTD4
Method: (ii) LTD4 antagonism in guinea-pig trachea
Antagonism for LTD4 was determined in isolated guinea-pig trachea prepared as spiral strip. Tracheal preparations were suspended under 1 g tension in 10 ml organ baths containing […] of indomethacin and they were incubated for 1 hr prior to use. Contractile responses to LTD4 (2×10^-8 g/ml) were obtained after the maximal respone to hitamine (10^-4 M). Test compounds dissolved in 100% dimethyl sulfoxide were added to the organ baths (final concentration of 10^-6 g/ml) 30 min prior to LTD4 addition, and then contractile responses to LTD4 were compared with those of control which was obtained from a paired trachea in the absence of test compounds. LTD4 -induced contractions were expressed as a percentage of the maximal response to histamine. The antagonism was determined as follows:
as §1

| Structure (SMILES) | inhibition at 1 µg/mL |
| --- | --- |
| CCCCCCCOc1cc(CNc2cn[nH]c(=O)c2Br)ccc1OC [compound 43] | 78% |
| Cc1ccc(CNc2cn[nH]c(=O)c2Cl)c(C)c1 [compound 52] | 22% |
| CCOc1cccc(CNc2cnn(Cc3ccccc3)c(=O)c2Cl)c1 [compound 50] | 30% |
| CCCCCCOc1cc(CNc2cn[nH]c(=O)c2Br)ccc1OC [Compound No. 41] | 87% |
| COc1ccc(CNc2cnn(-c3ccccc3)c(=O)c2Cl)cc1 [compound 44] | 20% |
| C=CCn1ncc(NCc2ccc(OC)c(OCCC)c2)c(Cl)c1=O [compound 47] | 31% |
| COc1ccc(CNc2cnn(Cc3ccccc3)c(=O)c2Cl)cc1 [compound 45] | 23% |
| CCOc1cc(CNc2cnn(-c3ccccc3)c(=O)c2Cl)ccc1OC [compound 49] | 42% |
| C=CCn1ncc(NCc2ccc(OC)c(OCC)c2)c(Cl)c1=O [compound 48] | 28% |
| CCCCCCOc1cc(CNc2cn[nH]c(=O)c2Cl)ccc1OC [compound 40] | 99% |
| COc1ccc(CNc2cn[nH]c(=O)c2Cl)cc1OCc1ccccc1 [compound 54] | 44% |
| CCOc1cc(CNc2cnn(C3CCCC3)c(=O)c2Cl)ccc1OC [compound 46] | 38% |
| CCCCCCCOc1cc(CNc2cn[nH]c(=O)c2Cl)ccc1OC [compound 42] | 96% |
| Cc1ccc(CNc2cn[nH]c(=O)c2Br)c(C)c1 [compound 53] | 37% |

System: antigen-induced anaphylactic bronchoconstriction in passively sensitized guinea-pig
Test: Anaphylactic bronchoconstriction in passively sensitized guinea-pig, i.v. test
Assay type: in vivo
Conditions: i.v. 2 mg/kg, 1 min prior to EA challenge (10 mg/kg)
Method: (§2) (iii) Effect on anaphylactic bronchoconstriction in passively sensitized guinea-pig
Male guinea-pigs (350-450 g) were passively sensitized with intravenous (i.v.) injection of 0.125 ml rabbit anti-EA (egg albumin) serum (Cappel Laboratories) 1 to 2 days preceding the experiment. […] Sensitized guinea-pigs were anaesthetized with intraperitoneal injection of urethane (1.5 g/kg). The right jugular vein was cannulated for the administration of the all agents and trachea was cannulated to record total pulmonary resistance. Guinea-pigs were artificially ventilated by a small animal respirator (Shinano, Model SN-480-7) set at a stroke volume of 4.5 ml and a rate of 50 breaths per min. […] The increase in air overflow volume was expresssed as a percentage of the maximum bronchoconstriction obtained by clamping off the trachea. Following surgical preparation, the animals were pretreated with indomethacin (0.2 mg/kg, 10 min), pyrilamine (2 mg/kg, 6 min) and propanolol (0.1 mg/kg, 5 min) prior to the EA challenge (0.1 or 10 mg/kg). All test compounds were administered intraveneously or orally before the EA challenge. Inhibition (%) of bronchoconstriction was determined as follows: Inhibition (%)=(1.0%-maximum bronchoconstriction in test/% maximum bronchoconstriction in control)×100. […] The number of test animals was 4 in the i.v. test and 6 in the p.o. test.
(a) The i.v. test: A test compound (2 mg/kg) was suspended or dissolved in 3% Tween 80 and intraveneously administered 1 min prior to the EA challlenge (10 mg/kg).

| Structure (SMILES) | Inhibition (%) of bronchoconstriction |
| --- | --- |
| CN(C)c1ccc(CNc2cn[nH]c(=O)c2Cl)cc1 [compound 25] | 27% |
| CCCOc1cc(CNc2cnn(C)c(=O)c2Cl)ccc1OC [Compound No. 12] | 31% |

System: antigen-induced anaphylactic bronchoconstriction in passively sensitized guinea-pig
Test: Anaphylactic bronchoconstriction in passively sensitized guinea-pig, p.o. test
Assay type: in vivo
Conditions: p.o. 50 mg/kg, 2 hours prior to EA challenge (0.2 mg/kg)
Method: as §2
Male guinea-pigs (350-450 g) were passively sensitized with intravenous (i.v.) injection of 0.125 ml rabbit anti-EA (egg albumin) serum (Cappel Laboratories) 1 to 2 days preceding the experiment. Antigen-induced anaphylactic bronchoconstrictions were measured by modified method of Konzett and Rossler (Arch. Exp. Path. Pharmak., 195, 71, 1940). Sensitized guinea-pigs were anaesthetized with intraperitoneal injection of urethane (1.5 g/kg). The right jugular vein was cannulated for the administration of the all agents and trachea was cannulated to record total pulmonary resistance. Guinea-pigs were artificially ventilated by a small animal respirator (Shinano, Model SN-480-7) set at a stroke volume of 4.5 ml and a rate of 50 breaths per min. The change in pulmonary resistance was measured with a pressure transducer (Nihon Kohden, Model TP-602T) connected to a T-tube on the tracheal cannula. The increase in air overflow volume was expresssed as a percentage of the maximum bronchoconstriction obtained by clamping off the trachea. Following surgical preparation, the animals were pretreated with indomethacin (0.2 mg/kg, 10 min), pyrilamine (2 mg/kg, 6 min) and propanolol (0.1 mg/kg, 5 min) prior to the EA challenge (0.1 or 10 mg/kg). All test compounds were administered intraveneously or orally before the EA challenge. Inhibition (%) of bronchoconstriction was determined as follows: Inhibition (%)=(1.0%-maximum bronchoconstriction in test/% maximum bronchoconstriction in control)×100. The maximum bronchoconstriction was btained within 30 min after the EA challenge. The number of test animals was 4 in the i.v. test and 6 in the p.o. test.
(b) The p.o. test: A test compound was suspended in 5% gum arabic and orally administered 2 hours prior to the EA challenge (0.2 mg/kg). The reaction of the control was 62±6%.

| Structure (SMILES) | Inhibition (%) of bronchoconstriction |
| --- | --- |
| CCCOc1cc(CNc2cn[nH]c(=O)c2Br)ccc1OC [compound 30] | 65% |
| CCOc1cc(CNc2cn[nH]c(=O)c2Br)ccc1OC [compound 36] | 68% |

System: ddY strain male mice
Test: Acute toxicity test, intraperitoneal (Test method-(1))
Assay type: in vivo
Conditions: i.p. 200 mg/kg, 7 days
Method: The lethal ratio was determined in ddY strain male mice (4 weeks old) at 7 days after the intraperitoneal injection of test compounds.

| Structure (SMILES) | Lethal ratio (Death number/Experimental number) |
| --- | --- |
| CCCOc1cc(CNc2cnn(C)c(=O)c2Cl)ccc1OC [Compound No. 12] | 0/2 |

Same assay, conditions: i.p. 400 mg/kg, 7 days

| Structure (SMILES) | Lethal ratio (Death number/Experimental number) |
| --- | --- |
| CCCOc1cc(CNc2cnn(C)c(=O)c2Cl)ccc1OC [Compound No. 12] | 0/1 |
